Laboratory results: ChEMBL document CHEMBL2074205, “Inhibitory potencies of 1,4-dihydropyridine calcium antagonists to P-glycoprotein-mediated transport: comparison with the effects on CYP3A4” (Pharm Res, 2000)

How the values were obtained:
Type in all cases: functional, cell-based
[1] = target: T1, ATP-dependent translocase ABCB1 (Homo sapiens, UniProt P08183); test: TP_TRANSPORTER: inhibition of Daunorubicin transepithelial transport (basal to apical) (Daunorubicin: 0.035 uM) in MDR1-expressing LLC-PK1 cells
[2] = target: T1, ATP-dependent translocase ABCB1; test: TP_TRANSPORTER: inhibition of Daunorubicin transepithelial transport (basal to apical), (+)-efonidipine (Daunorubicin: 0.035 uM) in MDR1-expressing LLC-PK1 cells
[3] = target: T1, ATP-dependent translocase ABCB1; test: TP_TRANSPORTER: inhibition of Daunorubicin transepithelial transport (basal to apical), (-)-efonidipine (Daunorubicin: 0.035 uM) in MDR1-expressing LLC-PK1 cells

T1 sequence (P08183 whole entry): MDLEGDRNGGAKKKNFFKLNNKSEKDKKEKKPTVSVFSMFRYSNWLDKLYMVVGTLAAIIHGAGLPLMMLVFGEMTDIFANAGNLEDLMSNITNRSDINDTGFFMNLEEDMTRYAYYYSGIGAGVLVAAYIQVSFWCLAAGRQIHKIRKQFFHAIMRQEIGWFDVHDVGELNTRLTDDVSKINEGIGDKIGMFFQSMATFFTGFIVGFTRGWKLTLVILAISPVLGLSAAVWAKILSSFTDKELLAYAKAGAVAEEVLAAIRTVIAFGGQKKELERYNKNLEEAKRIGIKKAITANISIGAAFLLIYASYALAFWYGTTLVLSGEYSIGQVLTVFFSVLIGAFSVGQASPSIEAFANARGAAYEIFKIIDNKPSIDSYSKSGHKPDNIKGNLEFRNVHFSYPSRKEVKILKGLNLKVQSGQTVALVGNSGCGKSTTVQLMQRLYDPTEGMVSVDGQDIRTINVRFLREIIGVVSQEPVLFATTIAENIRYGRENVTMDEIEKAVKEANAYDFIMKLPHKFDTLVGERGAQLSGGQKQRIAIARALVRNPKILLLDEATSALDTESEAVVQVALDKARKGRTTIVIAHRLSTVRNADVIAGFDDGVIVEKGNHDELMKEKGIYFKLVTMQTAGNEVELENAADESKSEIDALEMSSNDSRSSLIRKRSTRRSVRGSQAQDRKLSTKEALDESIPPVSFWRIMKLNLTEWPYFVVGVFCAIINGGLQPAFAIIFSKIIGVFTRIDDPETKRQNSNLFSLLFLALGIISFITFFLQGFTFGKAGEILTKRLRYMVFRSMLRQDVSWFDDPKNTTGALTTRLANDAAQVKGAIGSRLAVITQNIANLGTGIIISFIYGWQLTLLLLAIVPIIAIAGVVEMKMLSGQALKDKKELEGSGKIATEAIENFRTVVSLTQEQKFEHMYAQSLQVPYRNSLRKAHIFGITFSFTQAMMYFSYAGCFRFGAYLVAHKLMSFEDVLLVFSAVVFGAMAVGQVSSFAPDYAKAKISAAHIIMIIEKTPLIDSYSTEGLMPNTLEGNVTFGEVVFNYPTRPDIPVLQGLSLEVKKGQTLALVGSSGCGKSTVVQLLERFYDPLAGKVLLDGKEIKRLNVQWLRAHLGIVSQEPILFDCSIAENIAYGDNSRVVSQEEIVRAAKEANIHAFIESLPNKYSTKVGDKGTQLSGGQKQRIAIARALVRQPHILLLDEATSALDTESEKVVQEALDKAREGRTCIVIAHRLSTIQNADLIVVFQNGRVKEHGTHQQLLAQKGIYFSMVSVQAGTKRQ

SMILES	IC50 [1] [µM]	IC50 [2] [µM]	IC50 [3] [µM]
CCOC(=O)C1=C(COCCN)NC(C)=C(C(=O)OC)C1c1ccccc1Cl (stereo unspecified) [AMLODIPINE]	22	–	–
CC1=C(C(=O)OCCN(Cc2ccccc2)c2ccccc2)C(c2cccc([N+](=O)[O-])c2)C(P2(=O)OCC(C)(C)CO2)=C(C)N1 (stereo unspecified) [EFONIDIPINE]	–	20.6	17.3
COC(=O)C1=C(C)NC(C)=C(C(=O)OCCN2CCN(C(c3ccccc3)c3ccccc3)CC2)C1c1cccc([N+](=O)[O-])c1 (stereo unspecified) [MANIDIPINE 6300]	4.6	–	–
COC(=O)C1=C(C)NC(C)=C(C(=O)O[C@H]2CCN(Cc3ccccc3)C2)[C@H]1c1cccc([N+](=O)[O-])c1 [BARNIDIPINE]	8.6	–	–
COC(=O)C1=C(C)NC(C)=C(C(=O)O[C@@H]2CCCN(Cc3ccccc3)C2)C1c1cccc([N+](=O)[O-])c1 (stereo partly specified)	9.5	–	–
